Patent US12540131B2 (Merck Sharp & Dohme LLC, priority 2019, dated 2026)

Biological target: GST tagged truncated human mutant G2019S LRRK2 (Homo sapiens (Human), UniProt Q5S007, G2019S)
Assay: LRRK2 Km ATP LanthaScreen Assay
Format: biochemical
Conditions: G2019S LRRK2, 134 μM ATP (Km ATP), mean values; for IC50: read-out: LRRK2 pIC50 (converted)
Procedure: General Experimental Information: • Unless otherwise noted, all reactions are magnetically stirred. Unless otherwise noted, when diethyl ether is used in the experiments described below, it is Fisher ACS certified material and is stabilized with BHT. Unless otherwise noted, “concentrated” and/or “solvent removed under reduced pressure” means evaporating the solvent from a solution or mixture using a rotary evaporator or vacuum pump. Unless otherwise noted, flash chromatography is carried out on a Teledyne Isco (Lincoln, NE), Analogix (Burlington, WI), or Biotage (Stockholm, SWE) automated chromatography system using a commercially available cartridge as the column. Columns may be purchased from Teledyne Isco, Analogix, Biotage, Varian (Palo Alto, CA), or Supelco (Bellefonte, PA) and are usually filled with silica gel as the stationary phase. Reverse phase prep-HPLC conditions, where used, can be found at the end of each experimental section. Aqueous solutions were concentrated on a Genevac (Ipswich, ENG) or by freeze-drying/lyophilization. Unless otherwise noted, all LRRK2 pIC50 data presented in tables refers to the LRRK2 G2019S Km ATP LanthaScreen™ assay (Life Technologies Corp., Carlsbad, CA) that is described in the Biological Assay section.
The pIC50 values reported herein were measured as follows.
Biological Assay: LRRK2 Km ATP LanthaScreen™ Assay
Compound potency against LRRK2 kinase activity was determined using LanthaScreen™ technology from Life Technologies Corporation (Carlsbad, CA) using a GST20 tagged truncated human mutant G2019S LRRK2 in the presence of the fluorescein-labeled peptide substrate LRRKtide® (LRRK2 phosphorylated ezrin/radixin/moesin (ERM)), also from Life Technologies. The data presented for the Km ATP LanthaScreen™ Assay represents mean IC50 values based on several test results and may have reasonable deviations depending on the specific conditions and reagents used. Km is the Michaelis constant of an enzyme and is defined as the concentration of native substrate (ATP for a kinase) which permits the enzyme to achieve half Vmax (Vmax=rate of reaction when the enzyme is saturated with substrate). IC50 (half-maximal inhibitory concentration) represents the concentration of inhibitor required to inhibit LRRK2 kinase activity by 50%. Assays were performed in the presence of 134 μM ATP (Km ATP). Upon completion, the assay was stopped, and phosphorylated substrate detected with a terbium (Tb)-labeled anti-pERM antibody (cat. no. PV4898). The compound dose response was prepared by diluting a 10 mM stock of compound to a maximum concentration of 9.99 μM in 100% DMSO, followed by custom fold serial dilution in DMSO nine times. 20 nL of each dilution was spotted via a Labcyte Echo onto a 384-well black-sided plate (Corning 3575) followed by 15 μl of a 1.25 nM enzyme solution in 1× assay buffer (50 mM Tris pH 8.5, 10 mM MgCl2, 0.01% Brij-35, 1 mM EGTA, 2 mM dithiothreitol, 0.05 mM sodium orthovanadate). Following a 15-minute incubation period at RT, the kinase reaction was started with the addition of 5 μl of 400 nM fluorescein-labeled LRRKtide® (LRRK2 phosphorylated ezrin/radixin/moesin (ERM)) peptide substrate and 134 μM ATP solution in 1× assay buffer. The reaction was allowed to progress at ambient temperature for 90 minutes. The reaction was then stopped by the addition of 20 μl of TR-FRET Dilution Buffer (Life Technologies, Carlsbad, CA) containing 2 nM Tb-labeled anti-phospho LRRKtide® (LRRK2 phosphorylated ezrin/radixin/moesin (ERM)) antibody and 10 mM EDTA (Life Technologies, Carlsbad, CA). After an incubation period of 1 h at RT, the plate was read on an EnVision® multimode plate reader (Perkin Elmer, Waltham, MA) with an excitation wavelength of 337 nm (Laser) and a reading emission at both 520 and 495 nm. Compound IC50 values were interpolated from nonlinear regression best-fits of the log of the final compound concentration, plotted as a function of the 520/495-nm emission ratio using activity base “Abase”). […]

Sequence of GST tagged truncated human mutant G2019S LRRK2 (Q5S007 970-2527 G2019S): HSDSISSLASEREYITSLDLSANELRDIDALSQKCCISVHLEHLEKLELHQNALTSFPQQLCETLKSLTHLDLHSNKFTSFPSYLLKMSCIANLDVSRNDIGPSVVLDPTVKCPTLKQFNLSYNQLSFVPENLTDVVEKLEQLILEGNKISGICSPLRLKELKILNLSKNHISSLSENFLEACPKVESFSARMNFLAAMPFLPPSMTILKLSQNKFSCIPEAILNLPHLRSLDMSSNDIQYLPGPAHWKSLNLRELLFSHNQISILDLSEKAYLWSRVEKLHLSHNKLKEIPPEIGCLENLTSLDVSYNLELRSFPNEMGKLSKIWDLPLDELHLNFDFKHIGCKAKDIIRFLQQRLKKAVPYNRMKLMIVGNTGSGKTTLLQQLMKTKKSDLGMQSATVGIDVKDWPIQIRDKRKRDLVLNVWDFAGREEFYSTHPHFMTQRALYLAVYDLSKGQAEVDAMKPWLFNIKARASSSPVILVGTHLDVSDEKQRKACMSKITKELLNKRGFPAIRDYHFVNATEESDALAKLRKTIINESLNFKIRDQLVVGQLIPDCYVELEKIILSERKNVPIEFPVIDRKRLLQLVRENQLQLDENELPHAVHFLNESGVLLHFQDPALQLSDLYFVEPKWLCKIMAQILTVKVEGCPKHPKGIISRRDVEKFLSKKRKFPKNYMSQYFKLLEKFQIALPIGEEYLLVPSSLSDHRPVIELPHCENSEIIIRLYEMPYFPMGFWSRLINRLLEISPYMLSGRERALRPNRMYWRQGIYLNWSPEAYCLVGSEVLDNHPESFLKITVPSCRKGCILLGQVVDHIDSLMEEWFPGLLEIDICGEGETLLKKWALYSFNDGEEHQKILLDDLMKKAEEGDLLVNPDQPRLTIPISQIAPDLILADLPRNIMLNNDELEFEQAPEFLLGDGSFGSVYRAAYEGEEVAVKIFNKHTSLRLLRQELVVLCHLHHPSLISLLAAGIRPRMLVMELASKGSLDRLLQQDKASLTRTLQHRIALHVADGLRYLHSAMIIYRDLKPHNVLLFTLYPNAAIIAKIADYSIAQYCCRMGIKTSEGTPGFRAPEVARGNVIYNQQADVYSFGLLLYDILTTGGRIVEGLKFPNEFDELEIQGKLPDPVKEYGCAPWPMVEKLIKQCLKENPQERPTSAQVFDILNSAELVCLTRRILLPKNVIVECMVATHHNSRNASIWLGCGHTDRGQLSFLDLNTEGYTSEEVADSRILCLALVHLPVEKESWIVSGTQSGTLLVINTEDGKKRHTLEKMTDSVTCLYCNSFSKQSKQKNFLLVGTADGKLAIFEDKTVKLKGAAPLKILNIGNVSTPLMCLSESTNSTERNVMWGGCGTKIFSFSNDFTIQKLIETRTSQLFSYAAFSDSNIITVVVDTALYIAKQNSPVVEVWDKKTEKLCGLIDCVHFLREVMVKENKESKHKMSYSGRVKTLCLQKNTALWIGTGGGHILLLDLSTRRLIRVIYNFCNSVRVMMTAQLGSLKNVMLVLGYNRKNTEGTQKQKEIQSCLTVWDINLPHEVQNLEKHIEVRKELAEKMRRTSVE

| Compound | IC50 | LRRK2 pIC50 |
| --- | --- | --- |
| C[C@@H]1CC(c2cc3nc(Nc4cnn(C5CC5)c4Cl)ncc3cc2Cl)CCN1C1COC1 (single isomer, unassigned) [Ex-1.11, (S) or (R) 6-chloro-N-(5-chloro-1-cyclopropyl-1H-pyrazol-4-yl)-7-(2-methyl-1-(oxetan-3-yl)piperidin-4-yl)quinazolin-2-amine] | < 0.631 nM |  |
| C[C@H]1CC(c2cc3nc(Nc4cnn(C5CC5)c4Cl)ncc3cc2Cl)CCN1C1COC1 (single isomer, unassigned) [Ex-1.12, (S) or (R) 6-chloro-N-(5-chloro-1-cyclopropyl-1H-pyrazol-4-yl)-7-(2-methyl-1-(oxetan-3-yl)piperidin-4-yl)quinazolin-2-amine] | 0.741 nM |  |
| Cc1c(Nc2ncc3cc(Cl)c(C4CCN(C5COC5)[C@H](C)C4)cc3n2)cnn1C1CC1 (single isomer, unassigned) [Ex-1.13, (S) or (R) 6-chloro-N-(1-cyclopropyl-5-methyl-1H-pyrazol-4-yl)-7-(2-methyl-1-(oxetan-3-yl)piperidin-4-yl)quinazolin-2-amine] | 0.776 nM |  |
| Cc1c(Nc2ncc3cc(Cl)c(C4CCN(C5COC5)[C@@H](C)C4)cc3n2)cnn1C1CC1 (single isomer, unassigned) [Ex-1.14, (S) or (R) 6-chloro-N-(1-cyclopropyl-5-methyl-1H-pyrazol-4-yl)-7-(2-methyl-1-(oxetan-3-yl)piperidin-4-yl)quinazolin-2-amine] | < 0.631 nM |  |
| Cc1c(Nc2ncc3cc(Cl)c(C4CCN([C@@]5(C)COC[C@H]5O)CC4)cc3n2)cnn1C1CC1 (single isomer, unassigned) [Ex-1.15, (3S,4S) or (3R,4R) 4-(4-(6-chloro-2-((1-cyclopropyl-5-methyl-1H-pyrazol-4-yl)amino)quinazolin-7-yl)piperidin-1-yl)-4-methyltetrahydrofuran-3-ol] |  | 8.16 |
| Cc1c(Nc2ncc3cc(Cl)c(C4CCN([C@]5(C)COC[C@@H]5O)CC4)cc3n2)cnn1C1CC1 (single isomer, unassigned) [Ex-1.16, (3S,4S) or (3R,4R) 4-(4-(6-chloro-2-((1-cyclopropyl-5-methyl-1H-pyrazol-4-yl)amino)quinazolin-7-yl)piperidin-1-yl)-4-methyltetrahydrofuran-3-ol] |  | >9.20 |
| Cc1c(Nc2ncc3cc(Cl)c(C4CCN(C5(C)CCCC5O)CC4)cc3n2)cnn1C1CC1 (single isomer, unassigned) [Ex-1.19, (1R,2S) or (1S,2R) or (1S,2S) or (1R,2R) 2-(4-(6-chloro-2-((1-cyclopropyl-5-methyl-1H-pyrazol-4-yl)amino)quinazolin-7-yl)piperidin-1-yl)-2-methylcyclopentan-1-ol] |  | 7.59 |
| Cc1c(Nc2ncc3cc(Cl)c(C4CCN(C5(C)CCCC5O)CC4)cc3n2)cnn1C1CC1 (single isomer, unassigned) [Ex-1.20, (1R,2S) or (1S,2R) or (1S,2S) or (1R,2R) 2-(4-(6-chloro-2-((1-cyclopropyl-5-methyl-1H-pyrazol-4-yl)amino)quinazolin-7-yl)piperidin-1-yl)-2-methylcyclopentan-1-ol] |  | 8.84 |
| Cc1c(Nc2ncc3cc(Cl)c(C4CCN(C5CCCC5(F)F)CC4)cc3n2)cnn1C1CC1 (single isomer, unassigned) [Ex-1.21, (S) or (R) 6-chloro-N-(1-cyclopropyl-5-methyl-1H-pyrazol-4-yl)-7-[1-(2,2-difluorocyclopentyl)piperidin-4-yl]quinazolin-2-amine] | 1.86 nM |  |
| Cc1c(Nc2ncc3cc(Cl)c(C4CCN(C5CCCC5(F)F)CC4)cc3n2)cnn1C1CC1 (single isomer, unassigned) [Ex-1.22, (S) or (R) 6-chloro-N-(1-cyclopropyl-5-methyl-1H-pyrazol-4-yl)-7-[1-(2,2-difluorocyclopentyl)piperidin-4-yl]quinazolin-2-amine] | 7.94 nM |  |
| Cn1nc(C2CC2)cc1Nc1ncc2cc(Cl)c(C3CCN([C@@H]4COC[C@@H]4O)CC3)cc2n1 (single isomer, unassigned) [Ex-1.23, (3S,4S) or (3R,4R) 4-(4-{6-chloro-2-[(3-cyclopropyl-1-methyl-1H-pyrazol-5-yl)amino]quinazolin-7-yl}piperidin-1-yl)oxolan-3-ol] |  | 9.00 |
| Cn1nc(C(F)(F)F)cc1Nc1ncc2cc(Cl)c(C3CCN([C@@H]4COC[C@@H]4O)CC3)cc2n1 (single isomer, unassigned) [Ex-1.24, (3S,4S) or (3R,4R) 4-[4-(6-chloro-2-{[1-methyl-3-(trifluoromethyl)-1H-pyrazol-5-yl]amino}quinazolin-7-yl)piperidin-1-yl]oxolan-3-ol] |  | 8.58 |
| Cc1cc(Nc2ncc3cc(Cl)c(C4CCN([C@]5(C)COC[C@@H]5O)CC4)cc3n2)n(C)n1 (single isomer, unassigned) [Ex-1.25, (3S,4S) or (3R,4R) 4-(4-{6-chloro-2-[(1,3-dimethyl-1H-pyrazol-5-yl)amino]quinazolin-7-yl}piperidin-1-yl)-4-methyloxolan-3-ol] |  | 8.99 |
| [2H]C([2H])([2H])n1ncc(Nc2ncc3cc(Cl)c(C4CCN([C@]5(C)COC[C@@H]5O)CC4)cc3n2)c1C (single isomer, unassigned) [Ex-1.26, (3S,4S) or (3R,4R)-4-(4-(6-chloro-2-((5-methyl-1-(methyl-d3)-1H-pyrazol-4-yl)amino)quinazolin-7-yl)piperidin-1-yl)-4-methyltetrahydrofuran-3-ol] |  | >9.20 |
| [2H]C([2H])([2H])n1ncc(Nc2ncc3cc(Cl)c(C4CCN([C@]5(C)COC[C@@H]5O)CC4)cc3n2)c1Cl (single isomer, unassigned) [Ex-1.27, (3S,4S) or (3R,4R)-4-(4-(6-chloro-2-((5-chloro-1-(methyl-d3)-1H-pyrazol-4-yl)amino)quinazolin-7-yl)piperidin-1-yl)-4-methyltetrahydrofuran-3-ol] |  | >9.20 |
| Cc1cc(Nc2ncc3cc(Cl)c(C4CCN([C@]5(C)COC[C@@H]5O)CC4)cc3n2)n(C2CC2)n1 (single isomer, unassigned) [Ex-1.28, (3S,4S) or (3R,4R) 4-(4-{6-chloro-2-[(1-cyclopropyl-3-methyl-1H-pyrazol-5-yl)amino]quinazolin-7-yl}piperidin-1-yl)-4-methyloxolan-3-ol] |  | 9.12 |
| CC(C)(O)Cn1ncc(Nc2ncc3cc(Cl)c([C@@H]4CCN(C5(C)COC5)C[C@H]4F)cc3n2)c1Cl (single isomer, unassigned) [Ex-2.1, (3S,4S) or (3R,4R) 1-(5-chloro-4-((6-chloro-7-(3-fluoro-1-(3-methyloxetan-3-yl)piperidin-4-yl)quinazolin-2-yl)amino)-1H-pyrazol-1-yl)-2-methylpropan-2-ol] |  | 8.79 |
| CC(C)(O)Cn1ncc(Nc2ncc3cc(Cl)c([C@@H]4CCN(C5(C)COC5)C[C@H]4F)cc3n2)c1Cl (single isomer, unassigned) [Ex-2.2, (3S,4S) or (3R,4R) 1-(5-chloro-4-((6-chloro-7-(3-fluoro-1-(3-methyloxetan-3-yl)piperidin-4-yl)quinazolin-2-yl)amino)-1H-pyrazol-1-yl)-2-methylpropan-2-ol] | < 0.631 nM |  |
| Cc1cc2cnc(Nc3cnn(C4CC4)c3Cl)nc2cc1C1CCN(C2COCC2O)CC1 (single isomer, unassigned) [Ex-2.4, (3S,4S) or (3R,4R)-(4-(4-(2-((5-chloro-1-cyclopropyl-1H-pyrazol-4-yl)amino)-6-methylquinazolin-7-yl)piperidin-1-yl)tetrahydrofuran-3-ol] |  | >9.20 |
